Laboratory results published in patent US10980812B2, “3-(4-((4-(morpholinomethyl-benzyl)oxy)-1 -oxoisoindolin-2-yl)piperidine-2,6-dione for the treatment of systemic lupus erythematosus” (Celgene Corporation, priority 2014, dated 2021).
Read-outs that look alike come from different tables or passages of the source.

Legend:
[1] = tested on: IL-1β; experiment: Ex vivo IL-1β production in lipopolysaccharide-stimulated whole blood of dosed healthy volunteers; set-up: species or system human; conditions: 12 hours postdose
Excerpt: Whole blood was stimulated with lipopolysachharide and analyzed for IL-1β using the LPS TruCulture system (Part number 782-001087) by Myriad Rules Based Medicine (Austin, Tex.).

[2] = tested on: Aiolos; experiment: Aiolos protein level in whole blood leukocyte subsets, flow cytometry; assay type: cell-based, human; conditions: 1, 10, 100 nM, 18 hrs; CD19+ B cells, CD3+ T cells, CD14+ monocytes, granulocytes
Protocol: (§1) Human heparinized whole blood from normal healthy volunteers (Bioreclamation, Westbury, N.Y.) was treated with 0.1% DMSO and Compound 1A (1, 10, 100 nM) for 18 hrs at 37° C., 5% CO2. After 18 hrs, the blood was lysed and fixed with 1× Lyse/Fix Buffer (BD Biosciences) for 10 minutes at 37° C. Washed cells with cold PBS and cells were first multicolor stained with mouse anti-human CD3-PE mAb, mouse anti-human CD19-APC mAb and mouse anti-human-CD14-PerCP mAb (all from BD Biosciences) to identify CD3+ T cells, CD19+ B cells and CD14+ monocytes, respectively. The cells were then permeabilized by adding BD Perm/Wash Buffer I. Blocked non-specific binding by added FcR Blocking Reagent (Miltenyi Biotech) for 10 minutes prior to staining for intracellular Aiolos or Ikaros content. The cells were then stained with rabbit anti-human Aiolos polyclonal Ab (Santa Cruz, 1:200 dilution in Perm/Wash Buffer) or anti-human Ikaros polyclonal Ab (Santa Cruz, 1:50 dilution in Perm/Wash Buffer), followed by a goat-anti-rabbit mAb-AF488 Ab (Invitrogen, at 1:400 dilution in Perm/Wash Buffer) to test the intracellular Aiolos or Ikaros levels. […] Aiolos and Ikaros protein levels in B cells, T cells, monocytes and granulocytes were analyzed by FACSCanto with FACSDiva 6 (BD Biosciences) based on the gating of CD3+ cells, CD19+ cells, CD14+ cells and granulocytes (FSC/SSC). […]

[3] = tested on: Ikaros; experiment: Ikaros protein level in whole blood leukocyte subsets, flow cytometry; assay type: cell-based, human; conditions: 1, 10, 100 nM, 18 hrs; CD19+ B cells, CD3+ T cells, CD14+ monocytes, granulocytes
Protocol: as §1

[4] = tested on: Aiolos; experiment: B cell intracellular Aiolos after single doses in healthy volunteers; assay type: in vivo, human
Protocol: (§2) Healthy volunteers were administered placebo (n=10) or Compound 1A at doses of 0.03 mg, 0.1 mg, 0.3 mg, 1 mg, or 2 mg (N=6 each). Blood samples were drawn prior to dosing, or 3 hr, 12 hr, and 24 hr after dosing. Blood samples were lysed and fixed immediately by mixing 1 volume of blood with 20 volumes of 1× Lyse/Fix buffer (BD Biosciences, cat#558049) and mixing thoroughly by inverting the tube several times. This sample mix was incubated in a 37° C. water bath for 10 minutes, and the cells were pelleted by centrifugation at 800×g for 5 minutes to remove the supernatant by aspiration. The cells were washed twice with 2 mL of cold phosphate buffer saline (PBs), then permeabilized by adding 2 mL of cold BD Cytofix/cytoperm buffer and incubated on ice for 15 minutes. The cells were centrifuged than washed twice with BD perm/wash buffer, then resuspended in 40 ul of BD perm/wash buffer. Cells were stained with anti-CD3 or anti-CD19 antibody, and 20 ul of anti-Aiolos Ab (Santa Cruz Santa Cruz, rabbit polyclonal IgG, cat #sc-101982 at 1:200 dilution with staining buffer), or 20 uL of appropriate isotype controls to cells. Cells were mixed thoroughly and incubated at room temperature for 30 minutes in the dark, washed once with BD perm/wash buffer, then resuspended in 80 ul of BD perm/wash buffer, and 20 uL of secondary antibody was added before analysis on a flow cytometer.

[5] = tested on: CD19+ B cells; experiment: Peripheral blood B cell counts in healthy volunteers; assay type: in vivo; conditions: Homo sapiens
Protocol: as §2, with “Blood samples were drawn prior to dosing, or 3 hr, 12 hr, and 24 hr after dosing.” left out
Absolute B cell counts in the peripheral blood were measured by flow cytometry with anti-CD19 antibody as described above.

[6] = tested on: anti-dsDNA autoantibodies, SLE PBMC; experiment: Anti-dsDNA autoantibody production in cultures of SLE PBMC (ELISA); assay type: cell-based; conditions: Homo sapiens, N=9
Protocol: (§3) PBMCs were purified from human buffy coats using Ficoll-Paque method. CD19+ B cells were isolated from PBMC by following EasySep Human B cell enrichment cocktail protocol (StemCell Technologies Catalog #19054). Fresh B cell cocktail was prepared by adding 50 μg/mL of human transferrin to B cell medium (Iscove's medium with 10% PFBS, 1% P/S, and 5 μg/mL human insulin). The required volume of medium needed for the experiment was filtered through a 0.22 micron filter. B cell differentiation cocktail (final concentration): recombinant human Interleukin (IL)-2 (20 U/mL), IL-10 (50 ng/mL), IL-15 (10 ng/mL), CD40 Ligand/TNFSF5/histidine-tagged (50 ng/mL), polyHistidine mouse IgG1 antibody (5 μg/mL), and ODN 2006-Human TLR9 ligand (10 μg/mL). CD19+ cells were pretreated with Compound 1A or a Syk inhibitor or 0.1% DMSO for 1 hr, then incubated with B-cell differentiation medium for indicated times.
(§4) Whole blood samples from patients identified with SLE were obtained from Sanguine Biosciences; Inc. the blood was diluted with sterile Dulbecco's phosphate buffered saline solution (DPBS) and placed into three 50-mL conical tubes. […] Cell culture supernatants were harvested and analyzed for autoantibodies using an Anti-double stranded DNA antibody ELISA kit (Orgentec ORG 604S) and an Anti-Cardiolipin/Phospholipid ELISA kit (Orgentec ORG-529).

[7] = tested on: IL-2; experiment: Ex vivo IL-2 production in anti-CD3-stimulated whole blood of dosed healthy volunteers; set-up: species or system human; conditions: 12 hours postdose on Day 1
Excerpt: Whole blood was stimulated with anti-CD3 antibody and analyzed for IL-2 using the CD3 TruCulture system (Part number 782-001202) by Myriad Rules Based Medicine (Austin, Tex.).

[8] = tested on: anti-phospholipid autoantibodies, SLE PBMC; experiment: Anti-phospholipid autoantibody production in cultures of SLE PBMC (ELISA); assay type: cell-based; conditions: Homo sapiens, N=8
Protocol: as §3, §4

[9] = tested on: Aiolos; experiment: T cell intracellular Aiolos after single doses in healthy volunteers; assay type: in vivo, human; conditions: 12 hours postdose
Protocol: as §2

[10] = tested on: CD3+ T cells; experiment: Peripheral blood T cell counts in healthy volunteers; assay type: in vivo, human
Protocol: as §2
Absolute T cell counts in the peripheral blood were measured by flow cytometry with anti-CD3 antibody as described above.

O=C1CC[C@H](N2Cc3c(OCc4ccc(CN5CCOCC5)cc4)cccc3C2=O)C(=O)N1 [Compound 1A, (S)-3-[4-(4-morphlin-4-ylmethylbenzyloxy)-1-oxo-1,3-dihydro-isoindo-2-yl]piperidine-2,6-dione]
maximum IL-1β response, mean percent of baseline ([1]; 0.3 mg): 42.2% | maximum IL-1β response, mean percent of baseline ([1]; 1 mg): 21.8% | maximum IL-1β response, mean percent of baseline ([1]; 2 mg): 16.3% | Aiolos protein levels in whole blood leukocyte subsets [2]: reduced | Ikaros protein levels in whole blood leukocyte subsets [3]: reduced | B cell intracellular Aiolos, percent of baseline ([4]; 0.3 mg single dose, 24 hours postdose): 24.8% | B cell intracellular Aiolos, percent of baseline ([4]; 1 mg single dose, 12 hours postdose): 28.2% | B cell intracellular Aiolos, percent of baseline ([4]; 2 mg single dose, 12 hours postdose): 25.0% | Emax ([5]; 48 h, 1 mg, Day 2, read-out: absolute CD19+ cells, mean percent of baseline (maximum response)): 67.3% | Emax ([5]; 72 h, 0.3 mg, Day 3, read-out: absolute CD19+ cells, mean percent of baseline (maximum response)): 73.5% | Emax ([5]; 72 h, 2 mg, Day 3, read-out: absolute CD19+ cells, mean percent of baseline (maximum response)): 51.3% | IC50 [6]: ~10 nM | maximum IL-2, mean percent of baseline ([7]; 0.3 mg): 315% | maximum IL-2, mean percent of baseline ([7]; 1 mg): 973% | maximum IL-2, mean percent of baseline ([7]; 2 mg): 915% | IC50 [8]: ~10 nM | T cell intracellular Aiolos, percent of baseline ([9]; 1 mg single dose): 22.3% | T cell intracellular Aiolos, percent of baseline ([9]; 2 mg single dose): 26.1% | peripheral blood T cell counts, percent of baseline ([10]; 0.3 mg, Day 2): 84.1% | peripheral blood T cell counts, percent of baseline ([10]; 1 mg, Day 2): 79.4% | peripheral blood T cell counts, percent of baseline ([10]; 2 mg, Day 5): 73.8%
